From ChEMBL document CHEMBL4507281, “Data for DCP probe BI-4394” (2021)

Tests used:
Conditions in all cases: Compound concentration 100.0 nM
[1] = biological target: Ribosomal protein S6 kinase alpha-5 (Homo sapiens) (UniProt O75582)
[2] = biological target: Serine/threonine-protein kinase DCLK3 (Homo sapiens) (UniProt Q9C098)
[3] = biological target: Mitogen-activated protein kinase kinase kinase 1 (Homo sapiens) (UniProt Q13233)
[4] = biological target: Phosphatidylinositol 3-kinase catalytic subunit type 3 (Homo sapiens) (UniProt Q8NEB9)
[5] = biological target: Uncharacterized serine/threonine-protein kinase SBK3 (Homo sapiens) (UniProt P0C264)
Chain of Uncharacterized serine/threonine-protein kinase SBK3 (Homo sapiens) (P0C264 whole entry): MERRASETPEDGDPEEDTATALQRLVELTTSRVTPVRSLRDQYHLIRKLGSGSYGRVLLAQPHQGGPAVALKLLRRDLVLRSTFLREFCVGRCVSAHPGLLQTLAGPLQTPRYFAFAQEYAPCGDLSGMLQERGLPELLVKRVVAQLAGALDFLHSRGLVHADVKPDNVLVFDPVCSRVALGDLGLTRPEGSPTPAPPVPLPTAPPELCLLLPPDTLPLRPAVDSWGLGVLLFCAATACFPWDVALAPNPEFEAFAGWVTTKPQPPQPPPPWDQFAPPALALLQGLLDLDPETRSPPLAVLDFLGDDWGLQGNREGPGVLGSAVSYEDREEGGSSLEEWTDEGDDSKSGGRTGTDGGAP

[6] = biological target: cGMP-dependent protein kinase 1 (Homo sapiens) (UniProt Q13976)
[7] = system: Receptor-type tyrosine-protein kinase FLT3 (Homo sapiens), P36888 [R834Q]
[8] = biological target: Receptor-interacting serine/threonine-protein kinase 1 (Homo sapiens) (UniProt Q13546)
[9] = biological target: Protein kinase C theta type (Homo sapiens) (UniProt Q04759)
[10] = system: Phosphatidylinositol 4,5-bisphosphate 3-kinase catalytic subunit alpha isoform (Homo sapiens), P42336 [E542K]
[11] = biological target: G protein-coupled receptor kinase 4 (Homo sapiens) (UniProt P32298)
[12] = biological target: Serine/threonine-protein kinase tousled-like 1 (Homo sapiens) (UniProt Q9UKI8)
[13] = biological target: Cyclin-dependent kinase 4 (Homo sapiens) (UniProt P11802)
[14] = biological target: Death-associated protein kinase 3 (Homo sapiens) (UniProt O43293)
[15] = system: Epidermal growth factor receptor (Homo sapiens), P00533 [L861Q]
[16] = biological target: Wee1-like protein kinase 2 (Homo sapiens) (UniProt P0C1S8)
[17] = biological target: Mitogen-activated protein kinase kinase kinase kinase 1 (Homo sapiens) (UniProt Q92918)
[18] = biological target: Angiopoietin-1 receptor (Homo sapiens) (UniProt Q02763)
Chain of Angiopoietin-1 receptor (Homo sapiens) (Q02763 whole entry): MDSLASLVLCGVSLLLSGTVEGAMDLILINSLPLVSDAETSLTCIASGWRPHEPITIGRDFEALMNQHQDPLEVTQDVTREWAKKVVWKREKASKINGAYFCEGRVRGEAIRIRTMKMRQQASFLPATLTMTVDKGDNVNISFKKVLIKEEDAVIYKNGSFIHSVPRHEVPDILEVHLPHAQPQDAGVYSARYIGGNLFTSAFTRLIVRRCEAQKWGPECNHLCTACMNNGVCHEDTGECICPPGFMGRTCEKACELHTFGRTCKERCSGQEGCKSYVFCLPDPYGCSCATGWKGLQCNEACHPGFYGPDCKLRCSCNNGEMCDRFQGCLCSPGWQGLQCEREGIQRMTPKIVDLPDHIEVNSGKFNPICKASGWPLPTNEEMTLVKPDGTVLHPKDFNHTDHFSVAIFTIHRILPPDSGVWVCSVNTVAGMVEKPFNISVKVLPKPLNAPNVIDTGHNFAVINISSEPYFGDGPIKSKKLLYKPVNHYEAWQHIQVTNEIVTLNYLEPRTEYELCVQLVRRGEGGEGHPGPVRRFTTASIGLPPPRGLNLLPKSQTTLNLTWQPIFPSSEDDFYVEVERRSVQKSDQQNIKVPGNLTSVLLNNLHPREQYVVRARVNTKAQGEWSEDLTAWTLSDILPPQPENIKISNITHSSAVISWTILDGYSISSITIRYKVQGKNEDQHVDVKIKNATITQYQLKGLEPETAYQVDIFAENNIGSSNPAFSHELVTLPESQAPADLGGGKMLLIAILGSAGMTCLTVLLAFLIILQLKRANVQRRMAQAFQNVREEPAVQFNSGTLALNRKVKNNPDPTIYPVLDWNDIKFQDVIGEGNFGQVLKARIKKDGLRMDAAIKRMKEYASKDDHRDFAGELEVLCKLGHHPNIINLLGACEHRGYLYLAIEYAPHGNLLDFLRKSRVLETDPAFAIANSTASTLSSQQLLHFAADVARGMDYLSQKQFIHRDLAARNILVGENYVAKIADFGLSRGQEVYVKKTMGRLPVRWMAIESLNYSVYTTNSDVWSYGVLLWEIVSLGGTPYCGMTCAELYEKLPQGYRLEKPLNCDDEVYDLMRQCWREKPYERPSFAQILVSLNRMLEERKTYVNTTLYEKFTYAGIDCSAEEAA

[19] = biological target: Protein-tyrosine kinase 2-beta (Homo sapiens) (UniProt Q14289)
[20] = biological target: Protein kinase C eta type (Homo sapiens) (UniProt P24723)
[21] = biological target: Ephrin type-A receptor 3 (Homo sapiens) (UniProt P29320)
[22] = biological target: Mitogen-activated protein kinase 3 (Homo sapiens) (UniProt P27361)
[23] = biological target: Serine/threonine-protein kinase/endoribonuclease IRE1 (Homo sapiens) (UniProt O75460)
[24] = biological target: Phosphatidylinositol 4,5-bisphosphate 3-kinase catalytic subunit delta isoform (Homo sapiens) (UniProt O00329)
[25] = system: Mast/stem cell growth factor receptor Kit (Homo sapiens), P10721 [A829P]
[26] = biological target: Cyclin-dependent kinase 19 (Homo sapiens) (UniProt Q9BWU1)
[27] = biological target: T1, Aurora kinase A (Homo sapiens) (UniProt O14965)
T1 sequence (whole entry): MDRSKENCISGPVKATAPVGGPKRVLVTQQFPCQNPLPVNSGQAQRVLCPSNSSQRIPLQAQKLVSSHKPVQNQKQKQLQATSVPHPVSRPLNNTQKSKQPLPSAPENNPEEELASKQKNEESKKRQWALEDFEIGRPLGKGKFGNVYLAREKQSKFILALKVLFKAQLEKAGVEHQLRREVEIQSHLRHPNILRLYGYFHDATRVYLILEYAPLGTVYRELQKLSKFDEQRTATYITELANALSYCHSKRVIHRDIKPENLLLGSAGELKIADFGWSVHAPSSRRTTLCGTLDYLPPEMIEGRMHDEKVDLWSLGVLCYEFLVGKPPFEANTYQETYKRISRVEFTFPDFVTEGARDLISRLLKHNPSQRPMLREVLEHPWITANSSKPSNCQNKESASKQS

[28] = biological target: Serine/threonine-protein kinase 32C (Homo sapiens) (UniProt Q86UX6)
Chain of Serine/threonine-protein kinase 32C (Homo sapiens) (Q86UX6 whole entry): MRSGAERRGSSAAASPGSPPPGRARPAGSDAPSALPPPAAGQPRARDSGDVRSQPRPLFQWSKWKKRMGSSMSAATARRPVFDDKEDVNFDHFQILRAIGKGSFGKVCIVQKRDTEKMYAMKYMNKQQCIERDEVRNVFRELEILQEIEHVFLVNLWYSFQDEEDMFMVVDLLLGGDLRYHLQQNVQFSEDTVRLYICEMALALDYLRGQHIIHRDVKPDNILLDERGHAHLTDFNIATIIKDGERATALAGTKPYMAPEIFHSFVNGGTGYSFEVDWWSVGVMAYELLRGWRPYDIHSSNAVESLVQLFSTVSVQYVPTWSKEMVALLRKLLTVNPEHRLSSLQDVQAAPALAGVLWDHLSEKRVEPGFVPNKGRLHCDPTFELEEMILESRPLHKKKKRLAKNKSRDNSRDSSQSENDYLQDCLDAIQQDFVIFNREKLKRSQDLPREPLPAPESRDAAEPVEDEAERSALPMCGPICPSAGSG

[29] = biological target: Cyclin-dependent kinase 2 homolog (Plasmodium falciparum (isolate 3D7)) (UniProt P61075)
[30] = biological target: Dual specificity tyrosine-phosphorylation-regulated kinase 1B (Homo sapiens) (UniProt Q9Y463)
Chain of Dual specificity tyrosine-phosphorylation-regulated kinase 1B (Homo sapiens) (Q9Y463 whole entry, looked up): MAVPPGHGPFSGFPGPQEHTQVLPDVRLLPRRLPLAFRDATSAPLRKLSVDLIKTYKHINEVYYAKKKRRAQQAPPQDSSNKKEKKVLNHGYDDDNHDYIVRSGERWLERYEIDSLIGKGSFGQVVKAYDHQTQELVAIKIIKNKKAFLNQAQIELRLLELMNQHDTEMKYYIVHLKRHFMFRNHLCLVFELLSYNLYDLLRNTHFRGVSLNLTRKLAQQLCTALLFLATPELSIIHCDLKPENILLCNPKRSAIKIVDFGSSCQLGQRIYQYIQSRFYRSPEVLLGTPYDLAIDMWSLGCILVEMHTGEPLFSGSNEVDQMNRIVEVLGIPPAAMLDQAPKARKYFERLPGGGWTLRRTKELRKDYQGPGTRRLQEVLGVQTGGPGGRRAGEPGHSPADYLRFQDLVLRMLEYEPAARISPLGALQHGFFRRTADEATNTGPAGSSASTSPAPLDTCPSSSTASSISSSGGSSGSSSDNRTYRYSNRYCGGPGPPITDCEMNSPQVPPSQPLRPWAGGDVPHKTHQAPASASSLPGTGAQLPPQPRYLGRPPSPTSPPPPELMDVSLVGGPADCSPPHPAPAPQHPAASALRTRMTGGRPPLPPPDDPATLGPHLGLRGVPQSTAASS

[31] = biological target: Serine/threonine-protein kinase PAK 4 (Homo sapiens) (UniProt O96013)
[32] = biological target: Serine/threonine-protein kinase tousled-like 2 (Homo sapiens) (UniProt Q86UE8)
[33] = biological target: Rho-associated protein kinase 1 (Homo sapiens) (UniProt Q13464)
Chain of Rho-associated protein kinase 1 (Homo sapiens) (Q13464 2-1354 limits assumed): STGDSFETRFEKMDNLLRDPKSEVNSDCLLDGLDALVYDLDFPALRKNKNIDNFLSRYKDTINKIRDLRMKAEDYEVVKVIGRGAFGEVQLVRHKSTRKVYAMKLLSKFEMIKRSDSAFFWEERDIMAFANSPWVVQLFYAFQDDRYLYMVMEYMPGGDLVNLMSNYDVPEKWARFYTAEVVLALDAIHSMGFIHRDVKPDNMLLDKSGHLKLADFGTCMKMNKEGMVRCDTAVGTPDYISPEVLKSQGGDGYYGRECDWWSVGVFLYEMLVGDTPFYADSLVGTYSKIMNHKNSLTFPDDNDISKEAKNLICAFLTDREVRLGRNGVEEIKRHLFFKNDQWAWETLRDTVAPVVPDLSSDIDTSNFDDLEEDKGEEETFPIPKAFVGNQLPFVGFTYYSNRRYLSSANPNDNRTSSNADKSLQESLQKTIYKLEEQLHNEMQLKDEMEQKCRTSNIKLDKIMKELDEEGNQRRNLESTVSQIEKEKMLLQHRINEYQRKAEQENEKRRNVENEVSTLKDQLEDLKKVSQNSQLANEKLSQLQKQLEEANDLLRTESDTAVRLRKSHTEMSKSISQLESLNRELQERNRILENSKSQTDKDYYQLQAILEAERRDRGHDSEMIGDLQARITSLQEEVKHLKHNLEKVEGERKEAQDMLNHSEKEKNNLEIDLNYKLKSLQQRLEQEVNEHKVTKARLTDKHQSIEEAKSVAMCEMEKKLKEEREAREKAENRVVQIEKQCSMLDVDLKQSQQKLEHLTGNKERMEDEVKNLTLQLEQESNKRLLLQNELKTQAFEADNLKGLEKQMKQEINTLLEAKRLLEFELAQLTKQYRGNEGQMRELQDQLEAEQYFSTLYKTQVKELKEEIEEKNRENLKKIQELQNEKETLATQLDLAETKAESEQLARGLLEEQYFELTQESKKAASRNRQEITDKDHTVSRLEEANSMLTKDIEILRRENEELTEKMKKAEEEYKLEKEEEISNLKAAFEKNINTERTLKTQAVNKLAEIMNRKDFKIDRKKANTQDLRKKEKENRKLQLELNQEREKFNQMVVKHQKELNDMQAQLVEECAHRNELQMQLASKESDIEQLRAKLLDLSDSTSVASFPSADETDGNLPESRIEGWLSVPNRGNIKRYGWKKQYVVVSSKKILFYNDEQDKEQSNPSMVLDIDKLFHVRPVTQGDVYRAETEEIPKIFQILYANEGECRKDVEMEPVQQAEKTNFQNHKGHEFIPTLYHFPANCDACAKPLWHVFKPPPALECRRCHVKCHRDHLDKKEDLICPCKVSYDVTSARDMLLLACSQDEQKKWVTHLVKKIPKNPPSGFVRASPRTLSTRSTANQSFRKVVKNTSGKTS

[34] = biological target: Ephrin type-A receptor 6 (Homo sapiens) (UniProt Q9UF33)
Chain of Ephrin type-A receptor 6 (Homo sapiens) (Q9UF33 whole entry): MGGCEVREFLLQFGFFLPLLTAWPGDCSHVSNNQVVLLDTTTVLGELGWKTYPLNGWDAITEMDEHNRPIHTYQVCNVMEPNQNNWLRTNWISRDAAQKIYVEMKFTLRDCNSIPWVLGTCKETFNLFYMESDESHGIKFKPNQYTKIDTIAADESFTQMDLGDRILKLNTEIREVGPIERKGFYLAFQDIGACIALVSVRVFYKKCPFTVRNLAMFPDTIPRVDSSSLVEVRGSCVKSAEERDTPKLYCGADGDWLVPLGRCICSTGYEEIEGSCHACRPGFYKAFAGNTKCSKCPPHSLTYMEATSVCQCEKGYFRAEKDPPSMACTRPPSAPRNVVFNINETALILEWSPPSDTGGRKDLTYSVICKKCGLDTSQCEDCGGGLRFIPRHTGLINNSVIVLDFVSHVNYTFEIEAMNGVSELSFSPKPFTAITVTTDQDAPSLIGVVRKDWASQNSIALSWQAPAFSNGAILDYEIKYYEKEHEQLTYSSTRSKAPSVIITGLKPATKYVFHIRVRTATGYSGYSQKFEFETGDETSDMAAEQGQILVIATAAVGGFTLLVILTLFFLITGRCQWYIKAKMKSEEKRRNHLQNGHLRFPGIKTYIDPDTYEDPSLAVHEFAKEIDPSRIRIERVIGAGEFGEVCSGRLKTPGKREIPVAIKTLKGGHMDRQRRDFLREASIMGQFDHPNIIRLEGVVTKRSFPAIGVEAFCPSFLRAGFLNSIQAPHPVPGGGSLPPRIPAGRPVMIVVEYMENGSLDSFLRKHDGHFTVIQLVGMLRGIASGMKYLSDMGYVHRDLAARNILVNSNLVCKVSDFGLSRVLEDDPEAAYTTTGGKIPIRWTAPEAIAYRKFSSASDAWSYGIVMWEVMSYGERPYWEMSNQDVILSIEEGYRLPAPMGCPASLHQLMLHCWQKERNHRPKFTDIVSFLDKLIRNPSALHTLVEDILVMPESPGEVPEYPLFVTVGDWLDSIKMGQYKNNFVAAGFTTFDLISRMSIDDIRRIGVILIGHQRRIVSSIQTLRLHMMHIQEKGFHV

[35] = biological target: Serine/threonine-protein kinase Sgk1 (Homo sapiens) (UniProt O00141)
[36] = biological target: Myosin light chain kinase (Homo sapiens) (UniProt Q32MK0)
[37] = biological target: Mitogen-activated protein kinase 7 (Homo sapiens) (UniProt Q13164)
[38] = biological target: Macrophage-stimulating protein receptor (Homo sapiens) (UniProt Q04912)
[39] = biological target: Death-associated protein kinase 2 (Homo sapiens) (UniProt Q9UIK4)
[40] = biological target: Calcium/calmodulin-dependent protein kinase type IV (Homo sapiens) (UniProt Q16566)

Measured: residual activity

CCOC(=O)c1cc2cc(-c3cc(C(=O)NCc4ccc(C(=O)O)cc4)nn3C)ccc2[nH]1 [BI 4394]
inactive: [1] 100% | [2] 73% | [3] 90% | [4] 80% | [5] 87% | [6] 91% | [7] 78% | [8] 100% | [9] 97% | [10] 96% | [11] 100% | [12] 83% | [13] 82% | [14] 98% | [15] 100% | [16] 100% | [17] 100% | [18] 83% | [19] 100% | [20] 87% | [21] 100% | [22] 88% | [23] 90% | [24] 65% | [25] 95% | [27] 90% | [28] 100% | [29] 65% | [30] 100% | [31] 100% | [32] 93% | [33] 78% | [34] 94% | [35] 100% | [36] 89% | [37] 100% | [38] 100% | [39] 92% | [40] 95%
active: [26] 0%

Cn1nc(C(=O)NCc2ccc(C(=O)O)cc2)cc1-c1ccc2[nH]ccc2c1 [BI 4395]
inactive: [1] 100% | [2] 96% | [3] 65% | [4] 93% | [5] 79% | [6] 100% | [7] 63% | [8] 100% | [9] 99% | [10] 88% | [11] 96% | [12] 100% | [13] 96% | [14] 86% | [15] 69% | [16] 91% | [17] 97% | [18] 82% | [19] 96% | [20] 84% | [21] 89% | [22] 94% | [23] 83% | [24] 97% | [25] 72% | [26] 100% | [27] 100% | [28] 100% | [29] 74% | [30] 100% | [31] 86% | [32] 89% | [33] 93% | [34] 100% | [35] 88% | [36] 100% | [37] 87% | [38] 100% | [39] 96% | [40] 92%
